Values after ≈ are worked out from the molar mass of the structure shown.
Tests used:
[1] = Stability in rat liver microsomes assessed as compound remaining at 5 uM in presence of NADPH after 30 mins by LC-MS/MS method; format: ADME; conditions: read-out: Stability
[2] = Stability in dog liver microsomes assessed as compound remaining at 5 uM in presence of NADPH after 30 mins by LC-MS/MS method; format: ADME, Canis lupus familiaris; conditions: read-out: Stability
[3] = Stability in human liver microsomes assessed as compound remaining at 5 uM in presence of NADPH after 30 mins by LC-MS/MS method; format: ADME; conditions: read-out: Stability
[4] = Thermodynamic solubility in FaSSIF at pH 6.5 at 5 mg incubated for 48 hrs by HPLC method; format: physicochemical; conditions: read-out: Therm_solubility
[5] = Thermodynamic solubility in water at 5 mg incubated for 48 hrs by HPLC method; format: physicochemical; conditions: read-out: Therm_solubility

## COc1cc(N2CCc3nc(NC(=O)NCCc4cn(CC(F)F)cn4)sc3C2)cnc1Cl
[1]
  remaining at 0.5 h, 5 µM: 100%
[2]
  remaining at 0.5 h, 5 µM: 84%
[3]
  remaining at 0.5 h, 5 µM: 61%

## COc1cncc(N2CCc3nc(NC(C)=O)sc3C2)c1
[4]
  solubility thermodynamic at 48 h: 9.4 µg/mL (≈ 30.9 µM)
[5]
  solubility thermodynamic at 48 h: 12.1 µg/mL (≈ 39.8 µM)
